In patent US12138034B2, “Gastroretentive articles for alcohol sensing” (priority 2020, dated 2024):
“Also recorded” adds a separate entry of the source.

Key:
Assay type in all cases: physicochemical
[1] = Stability of drug-polymer pills in SGF (polymer protection metric); details: 3 days in SGF, 37° C., 200 rpm, n=3
Procedure: Drug-polymer pills were incubated in a shaking incubator at 37° C. and 200 rpm in 50 mL of SGF for 3 days with fluid replaced every day. Then, drug-polymer pills were transferred to acetonitrile for extraction of drug from the polymer pill. The average of extracted amount (n=3) was normalized to the average of extracted drug from drug-polymer pills placed directly in acetonitrile (n=3) to yield the polymer protection metric plotted. PCL protects 89.75% of sofosbuvir, 82.39% of daclatasvir, and 87.11% of ribavirin. Silicone protected 98.96% of ledipasvir.

[2] = In vitro drug release from individual drug-polymer pills; details: 37° C., 200 rpm, 50 mL fluid; varying PCL molecular weight, coating, drug loading, SA/V ratio, excipients
From the text: FIGS. 11A-11E show fabrication and in vitro release of direct-acting antivirals (DAAs) from individual drug-polymer pills, according to one set of embodiments. FIG. 11A. Drug-polymer pills are made by mixing drug with either silicone or poly(ε-caprolactone) (PCL) and then casting into a Petri dish or a three-dimensional (3-D) printed mold. Drug-silicone pills are extracted using a biopsy punch, and drug-PCL pills are extracted with a razor blade. Pills are then spray-coated with a pan coater. A cross-sectional image of a PCL-coated drug-PCL pill is shown. FIG. 11B. In vitro release of sofosbuvir from a drug pill in water with varying molecular weight of PCL. FIG. 11C. In vitro release of daclatasvir from a drug pill in water with varying molecular weight of PCL and PCL coating. FIG. 11D. In vitro release of ledipasvir from a drug pill in acetonitrile with varying silicone hardness. FIG. 11E. In vitro release of ribavirin from a drug pill in water with molecular weight of PCL and drug loading percentage. Error bars represent SD for n=3 samples.
LA-DAAS prototyping and in vitro drug release. LA-DAAS were assembled and in vitro drug release was evaluated by High-Performance Liquid Chromatography (HPLC) as previously described, with modifications including novel formulations for DAAs (FIGS. 14A-14B).(17) The following drugs were acquired: sofosbuvir (Hefei Hirisun Pharmatech Co., Ltd, Hefei, China), daclatasvir and ledipasvir (Hangzhou APIChem Technology Co, Ltd., Hangzhou, Zhejiang, China), and ribavirin (ChemShuttle, Hayward, CA). […] Drug loading percentages were determined relative to the final polymer mixture weight: sofosbuvir (50%), daclastasvir (40%), ledipasvir (40%), and ribavirin (40%). […] Drug concentrations were then analyzed using an Agilent 1260 Infinity II HPLC system. […] For evaluation of the safety and residence time of the LA-DAAS, the animals were clinically assessed twice a day for evidence of GI obstruction including inappetence, abdominal distension, lack of stool, and vomiting. […]

[3] = Stability of DAAs in simulated gastric fluid (SGF, pH=2), HPLC
Procedure: FIGS. 17A-17C show stability of DAAs in simulated gastric fluid (SGF, pH=2), according to one set of embodiments. All DAAs were dissolved in SGF and placed in a shaking incubator (200 rpm, 37° C.). Samples were collected at defined time points for up to 4 weeks and analyzed by HPLC to quantify stability. […] FIG. 17A. Stability of sofosbuvir in SGF. FIG. 17B. Stability of daclatasvir in SGF. FIG. 17C. Stability of ribavirin in SGF. Error bars represent SD for n=3 samples in each group.

polymer protection (drug extracted after SGF, normalized to pills placed directly in acetonitrile) ([1]; drug-silicone pill) [%]	stability in SGF ([3]; SGF pH=2, no HPLC signal detected at t=0)	SMILES	polymer protection (drug extracted after SGF, normalized to pills placed directly in acetonitrile) ([1]; drug-PCL pill) [%]	in vitro release rate from drug-polymer pills (trend, words) [2]	degradation in SGF ([3]; SGF pH=2, 37° C., 200 rpm, within 7 days) [%]
		CC(C)OC(=O)[C@H](C)N[P@](=O)(OC[C@H]1O[C@@H](n2ccc(=O)[nH]c2=O)[C@](C)(F)[C@@H]1O)Oc1ccccc1 [sofosbuvir]	89.75	increased as the molecular weight of PCL increased from 25,000 to 80,000; also recorded: Increasing the surface area to volume ratio of the pill also increased the sofosbuvir release rate; also recorded: increases the release rate of sofosbuvir; also recorded: Drug release increases as the SA/V ratio increases	95
		NC(=O)c1ncn([C@@H]2O[C@H](CO)[C@@H](O)[C@H]2O)n1 [ribavirin]	87.11	increased at higher PCL molecular weight and with a higher drug loading percentage	
98.96	degraded immediately in acid	COC(=O)N[C@H](C(=O)N1CC2(CC2)C[C@H]1c1ncc(-c2ccc3c(c2)C(F)(F)c2cc(-c4ccc5nc([C@@H]6[C@H]7CC[C@H](C7)N6C(=O)[C@@H](NC(=O)OC)C(C)C)[nH]c5c4)ccc2-3)[nH]1)C(C)C [ledipasvir]		faster release rate	
